This is an account of results in patent US20260184766A1 (priority 2022, published 2026).

The target in assay [1] is biotinylated RBD (Severe acute respiratory syndrome coronavirus 2, UniProt P0DTC2).
Assay [2] concerns the target biotinylated RBD (Wuhan-Hu-1) (Severe acute respiratory syndrome coronavirus 2, UniProt P0DTC2).
Assay [3] has as its system pseudotyped virus carrying SARS-CoV-2 (Wuhan-Hu-1) wild-type (WT) spike protein. Format: cell-based. Particulars: for EC50: read-out: Virus Neutralization Pseudovirus (nM) Wild-type.
In assay [4] the test system is pseudotyped virus carrying S protein of a SARS-CoV-2 delta lineage virus. The format is cell-based. Particulars: read-out: Virus Neutralization Pseudovirus (nM) Delta.

For “EGDKTCPDGYEHTCGCIGGCGCKRSACIGALCCQASLGGWLSDGETYTYEF [G3 Knob]”, the “binding to RBD after heat and SDS treatment” value in assay [1] is recorded as “maintained binding”. For the same sequence, in assay [2], the “RBD binding relative to reference anti-spike protein antibody CR3022” value was “increased” and the “binding of coated CDR3-knob to biotinylated RBD, in words” value is given as “showed binding”. Besides, the “neutralization potency of CDR3-knob only antibody, in words” value in assay [3] is listed as “subnanomolar potency”.
For “GGSCPDGYEHTCGCIGGCGCKRSACIGALCCQASLGGWLSD [G3 NTRUNC5]”, the “binding of coated CDR3-knob to biotinylated RBD, in words” value in assay [2] was “did not correlate with any reduction in binding activity”.
The same measure, in the same setting: under “GGSEGDKTCPDGYEHTCGCIGGCGCKRSACIGALCCQASLGGW [G3 TRUNC3B]” stands “reduced binding”; under “GGSEGDKTCPDGYEHTCGCIGGCGCKRSACIGALCCQASLGGWL [G3 TRUNC3A]”, “reduced binding”.
Turning to “HWTCPDGYEHTCGCIGGCGCKRSACIGALCCQASLGGWLSDSF [2G3 knob HWSF]”, the EC50 is 21.2 ± 22.9 nM in assay [4] and 0.15 ± 0.03 nM in assay [3].
For “ISTCPDGYEHTCGCIGGCGCKRSACIGALCCQASLGGWLSDTV [2G3 knob ISTV]”, in that order: 56 ± 7.02 nM and 0.12 ± 0.03 nM.
Turning to “TCPDGYEHTCGCIGGCGCKRSACIGALCCQASLGGWLSD [2G3 Knob]”, the EC50 in assay [4] is 71.3 ± 37.2 nM; in assay [3] it was 1.3 ± 0.3 nM.
